Measurements taken from patent US11932594B1, “8-((2-hydroxy-5-methylphenyl)diazenyl)naphthalene-1,3-disulfonic acid as an antioxidant compound” (KING FAISAL UNIVERSITY, priority 2023, dated 2024).

Experiment: DPPH (2,2-diphenyl-1-picrylhydrazyl) in vitro antioxidant test
Format: biochemical
Conditions: 517 nm; for Inhibition (radical scavenging inhibition): 0.2 mL DPPH (0.75 mM) in ethanol, 30 min incubation in the dark
Description: The antioxidant properties of the 8-((2-hydroxy-5-methylphenyl)diazenyl)naphthalene-1,3-disulfonic acid were studied by adding 0.2 mL DPPH (0.75 mM)) to compound 8-((2-hydroxy-5-methylphenyl)diazenyl)naphthalene-1,3-disulfonic acid (III) (304) in ethanol. After 30 min of incubation in the dark, the absorbance was read against a blank at 517 nm. Ascorbic acid (vitamin C) was used as standard antioxidants (positive control). A blank sample was prepared by 0.2 ml of DPPH in 3 ml ethanol. A negative control sample was run using ethanol instead of the sample. The radical scavenging inhibition was calculated using the following equation: […]

Compound | Inhibition (radical scavenging inhibition) [%] | antioxidant potential compared to vitamin C (DPPH in vitro test, vitamin C as positive control)
Cc1ccc(O)c(/N=N/c2cccc3cc(S(=O)(=O)O)cc(S(=O)(=O)O)c23)c1 [Product III, 8-((2-hydroxy-5-methylphenyl)diazenyl)naphthalene-1,3-disulfonic acid] | 54 | high potential as an antioxidant compared to vitamin C
O=C1O[C@H]([C@@H](O)CO)C(O)=C1O [vit c, Ascorbic acid, reference compound] | 74 | –
